Measured values published in article PMC5727842, “Antioxidant and Antidiabetic Effects of Flavonoids: A Structure-Activity Relationship Based Study” (BioMed Research International, 2017).
Converted amounts (≈) assume the structure as drawn.

Key:
[1] = target: α-glucosidase from Saccharomyces cerevisiae; test: α-Glucosidase inhibitory assay; type: biochemical; conditions: Table 3; mean ± SEM (n = 3); NA: not active
Description: α-Glucosidase inhibitory activity of the flavonoids was carried out according to the standard method with minor modification. […] A solution of 30 mM phosphate buffer (pH 6.5) was used to prepare stock solution of the sample to form a final concentration of 160 μg/mL. Then, 10 μL/well of sample was mixed with 15 μL/well of α-glucosidase from Saccharomyces cerevisiae (Megazyme, Ireland). 50 mM buffer (pH 6.5) was used to prepare the enzyme solution. Then, 115 μL/well of 30 mM buffer (pH 6.5) was added and incubated for 5 min at room temperature. Then, 75 μL/well of PNP-glucoside was added to initiate reaction and incubated at room temperature for 15 min. Finally, about 50 μL glycine at pH 10 was added to stop the reaction. The final volume of 250 μL of compound, positive control, enzyme, 30 mM buffer, and substrate was located in 96-well microplate. The absorbance (Abs) was measured using microplate reader (Tecan NanoQuant Infinite M200, Switzerland) at 405 nm to represent the amount of p-nitrophenol released from PNP-glucoside. […] The equation given below was used to calculate the inhibitory activity (%):(4) Inhibitory activity%=Abs control−Abs sample/Abs control×100%.
Tested on yeast α-glycosidase, the reaction is initiated by reacting the inhibitor (sample) with the α-glycosidase enzyme that competes with […] for the binding site, thus releasing ρ-nitrophenol which was measured in the assay.

[2] = Ferric reducing antioxidant power (FRAP); conditions: for FRAP (AAE μg): ascorbic acid equivalent, mean ± SEM (n = 3), Table 2
Description: This assay was based on the reduction of the ferric tripyridyltriazine (Fe III-TPTZ) complex to the ferrous ion (Fe II) at a low pH forming an intense blue color. In the FRAP assay, compounds that are rich in antioxidant effect exert their action by breaking the free radical chain by donating a hydrogen atom. Briefly, ferric reducing antioxidant power (FRAP) reagent (2.5 mL of a 10 mM TPTZ solution in 40 mM HCl, 2.5 mL of 20 mM FeCl3, and 25 mL of 0.1 M acetate buffer pH 3.6) was prepared and incubated for 10 min at 37°C. Then 20 μL of each compound and ascorbic acid (standard) and 40 μL of FRAP reagent were added to 140 μL of distilled water in a 96-well plate producing a blue-colored solution. The solutions were kept at room temperature for 20 min in the dark and then measured at 593 nm with a microplate reader (Tecan, Switzerland) using a reagent blank composed of 40 μL of FRAP reagents in 200 μL of distilled water. A calibration curve was prepared with a serial dilution of ascorbic acid (standard). The total antioxidant capacity was calculated by interpolating the measured absorbance of the calibration curve and expressed as ascorbic acid equivalents. The results were corrected for dilution and expressed as AAE μg of ascorbic acid/g.

SMILES	IC50 α-Glucosidase [1]	FRAP (AAE μg) [2]	FRAP antioxidant capacity [2]
O=c1cc(-c2ccc(O)c(O)c2)oc2c(O)c(O)cc(O)c12 [Hypolaetin, 3′,4′,5,7,8-Pentahydroxyflavone]	48.42 ± 9.71 µg/mL (≈ 160 µM)	177.37 ± 1.82^B AAE μg	
COc1cc(O)c2c(=O)cc(-c3ccccc3)oc2c1 [Techtochrysin, 5-Hydroxy-7-methoxyflavone]	>100^A µg/mg	11.49 ± 0.32^F AAE μg	11.49 ± 0.32 AAE μg of ascorbic acid/g
